From US20070197599A1, “HYDROXYLAMINES AND DERIVATIVES AS ANTI-ANGIOGENIC AGENTS” (priority 2006, published 2007)
Where “and” joins values, the source holds several entries; their conditions need not be identical. Identical values can stand only once.

Assays:
[1] = Single-dose 10-minute intravenous infusion toxicokinetics in Sprague-Dawley rats; type: in vivo
Procedure: Blood for toxicokinetic evaluations was collected at pre-determined time points during and after the infusion.
All pharmacokinetic analyses were performed using Kinetica®, version 4.2 (Innaphase, Philadelphia, Pa.).
Cmax is the observed maximum plasma concentration
Tmax is the time Cmax is reached
T1/2 is the elimination half-life
The plasma concentrations were rounded to the nearest tenth of a ng/mL before the calculations. […] Nominal time points were used for all calculations.

[2] = In vitro stability of Compound 1 in dog plasma; type: in vitro ADME; conditions: formed from OT-551 (Compound 1, 1000 ng/mL)
Procedure: The active metabolite of Compound 1 (Cyclopropanecarboxylic acid 1-hydroxy-2,2,6,6-tetramethyl-piperidin-4-yl ester) is TPH. The objective of this analysis was to determine the in vitro half-life of Compound 1 in rat, rabbit, dog, and human plasma under standardized incubation conditions.
Compound 1 was incubated with pooled rat, rabbit, dog, and human plasma for various times under standardized incubation conditions. Pre-labeled tubes containing pooled plasma from rats, rabbits, dogs, and humans were pre-incubated in a shaking 37° C. water bath. A Compound 1 solution was added to the tubes at a final concentration of 1000 ng/mL. Time zero samples (n=5) were immediately removed and transferred into tubes containing a stabilizer solution (DTPA, acetylcysteine and ascorbic acid), the LC/MS/MS assay internal standard and methanol. […] The tubes were vortexed, placed on ice, followed by centrifugation. One hundred-μL aliquots of the supernatant were transferred into HPLC sample vials. Additional tubes (n=5 at each time point) were incubated for 5, 10, 20, 30, 60, 120, and 240 minutes at 37° C. and thereafter processed. The amount of Compound 1 and TPH in each incubated sample was quantified using validated LC/MS/MS assays.

[3] = system: H2O2-induced angiogenesis in the CAM model; assay: H2O2-induced angiogenesis in the chick chorioallantoic membrane (CAM) model; type: in vivo
Procedure: Neovascularization was examined by previously described methods (see references at the end of Example 5). Ten-day-old fertilized chicken eggs were incubated at 37° C. with 55% relative humidity. In the dark with the help of candling lamp and using a hypodermic needle a small hole was punctured in the shell covering the air sac. A second hole was punctured on the wider side of the egg above an avascular area of the embryonic membrane. An artificial air sac was created below the second hole by applying gentle vacuum to the first hole using a small rubber squeeze bulb. The vacuum caused the separation of chorioallantoic membrane (CAM) from the shell. An approximately 1.0 cm^2 widow was cut in the shell over the dropped CAM with the use of a mini drill. The underlying CAM was accessed through this small window.
Filter disks were punched using a small puncher from filter paper #1 (Whatman International, United Kingdom). Filter disks were soaked in 3 mg/ml cortisone acetate solution (95% ethanol and water) and air-dried under sterile condition. For inducing angiogenesis, sterile filter disks were saturated with bFGF (1 μg/ml) or other pro-angiogenesis factors and control disks were saturated with PBS without Calcium and Magnesium.
Using sterile forceps one filter/CAM was placed from the window. The window was sealed with Highland brand transparent tape. After 24 hr, 10-25 µl of test agent (inhibitor) was injected intravenously or added topically into the CAM membrane of bFGF or other pro-angiogenesis factors stimulated CAMs. • Control filter disks received PBS without Calcium and Magnesium. • After 48 hr, CAM tissue directly beneath filter disk was harvested and placed in a 35-mm Petri dish. Eight-Ten eggs/treatment group was used.
A pro-angiogenic agent (see Examples, below) was added to induce new blood vessel branches on the CAM of 10-day old embryos. Sterile disks of #1 filter paper (Whatman International, United Kingdom) were pre-treated with 3 mg/ml cortisone acetate, and air dried under sterile conditions. The disks were then suspended in PBS (Phosphate Buffered Saline) and placed on growing CAMs. Filters treated with TPH (TEMPOL-H) or TEMPOL and/or H2O2 or TPH and/or bFGF or VEGF were placed on the first day of the 3-day incubation.
Digital Images and Microscopic analysis of CAM sections: CAM sections from Petri dish were examined using SV6 stereomicroscope (Karl Zeiss) at 50× magnification. Digital images were captured using a 3-CCD color video camera system (Toshiba America, New York, N.Y.). These images were analyzed using Image-Pro Plus software (Media Cybernetics). The number of branch points in blood vessels within the circular region superimposed to the area of a filter disk was counted for each section. After incubation at 37° C. with 55% relative humidity for 3 days, the CAM tissue directly beneath each filter disk was resected from control and treated CAM samples. Tissues were washed three times with PBS. Sections were placed in a 35-mm Petri dish (Nalge Nunc; Rochester, N.Y.) and were examined under a SV6 stereomicroscope (Karl Zeiss; Thornwood, N.Y.) at 50× magnification. Digital images of CAM sections adjacent to filters were collected using a 3-CCD color video camera system (Toshiba America; New York, N.Y.) and analyzed with the Image-Pro Plus software (Media Cybernetics; Silver Spring, Md.). The number of vessel branch points contained in a circular region equal to the area of a filter disk was counted for each section. Percent inhibition data are expressed as the quotient of the experimental value minus the negative control value divided by the difference between the positive control value and the negative control value. One image was counted in each CAM preparation, and findings from eight CAM preparations were analyzed for each treatment condition. In addition, each experiment was performed three times. […]

[4] = after Compound 1 10 mg/kg iv infusion
[5] = after Compound 1 30 mg/kg iv infusion
[6] = after Compound 1 100 mg/kg iv infusion
[7] = H2O2 (88 μM, 30 ng) + 100 μg test agent
[8] = H2O2 (88 μM, 30 ng) + 200 μg test agent
[9] = H2O2 (88 μM, 30 ng) + 400 μg test agent
[10] = H2O2 (88 μM, 30 ng) + 800 μg test agent

For `CC1(C)CC(O)CC(C)(C)N1O` [TPH], the “plasma levels of TPH at 4 hr post infusion” value ([1]; after Compound 1 10 mg/kg dose) was “still quantifiable”, the “AUC(0-4.167 hr) of TPH” value [1, 4] was 1694.8 ng·h/mL and the “Cmax of TPH” value [1, 4] was 2481.7 ng/mL. The “Tmax of TPH” value [1, 4] was 10 min, the “T½ of TPH (elimination half-life)” value [1, 4] was 24 min and the “Plasma concentration of TPH” value ([1]; after Compound 1 10 mg/kg iv infusion, 0.167 hr) was 2481.7 ± 325.8 ng/mL. The “Plasma concentration of TPH” value ([1]; after Compound 1 10 mg/kg iv infusion, 1.167 hr) was 204.7 ± 85.6 ng/mL, the “Plasma concentration of TPH” value ([1]; after Compound 1 10 mg/kg iv infusion, 2.167 hr) was 25.2 ± 24.0 ng/mL and the “Plasma concentration of TPH” value ([1]; after Compound 1 10 mg/kg iv infusion, 4.167 hr) was 4.2 ± 10.3 ng/mL. The “AUC of TPH” value ([1]; after Compound 1 10 mg/kg iv infusion, to time infinity) was 1697.5 ng·h/mL, the “Cmax of TPH” value [1, 5] was 8337.7 ng/mL and the “Tmax of TPH” value [1, 5] was 10 min. For the same compound, the “Plasma concentration of TPH” value ([1]; after Compound 1 30 mg/kg iv infusion, 0.167 hr) was 8337.7 ± 2099.5 ng/mL, the “Plasma concentration of TPH” value ([1]; after Compound 1 30 mg/kg iv infusion, 4.167 hr) was 53.8 ± 29.7 ng/mL and the “Cmax of TPH” value [1, 6] was 29020.8 ng/mL. For the same compound, the “Tmax of TPH” value [1, 6] was 10 min, the “Plasma concentration of TPH” value ([1]; after Compound 1 100 mg/kg iv infusion, 0.167 hr) was 29020.8 ± 11713.7 ng/mL and the “Plasma concentration of TPH” value ([1]; after Compound 1 100 mg/kg iv infusion, 4.167 hr) was 160.0 ± 97.5 ng/mL. The “Tmax of TPH” value ([1]; after Compound 1 200 mg/kg iv infusion) was 10 min, the “Plasma concentration of TPH” value ([1]; after Compound 1 200 mg/kg iv infusion, 0.167 hr) was 60802.2 ± 8922.5 ng/mL and the “Plasma concentration of TPH” value ([1]; after Compound 1 200 mg/kg iv infusion, 4.167 hr) was 524.5 ± 237.0 ng/mL. For the same compound, the “Cmax of TPH” value ([1]; after Compound 1 200 mg/kg iv infusion, 200 mg/kg) was 60802.1 ng/mL and 60802.2 ng/mL, the “levels of TPH at four hours after terminating the infusion relative to concentrations immediately after terminating the infusions” value ([1]; after Compound 1 30, 100 and 200 mg/kg) was “less than 1%” and the “Concentration of TPH in plasma” value ([2]; incubation 0 min) was 0.00 ± 0.00 ng/mL. The “Concentration of TPH in plasma” value ([2]; incubation 5 min) was 5.85 ± 0.73 ng/mL, the “Concentration of TPH in plasma” value ([2]; incubation 10 min) was 8.77 ± 0.65 ng/mL and the “Concentration of TPH in plasma” value ([2]; incubation 20 min) was 12.79 ± 0.74 ng/mL. The “Concentration of TPH in plasma” value ([2]; incubation 30 min) was 16.22 ± 0.67 ng/mL, the “Concentration of TPH in plasma” value ([2]; incubation 60 min) was 25.68 ± 1.04 ng/mL and the “Concentration of TPH in plasma” value ([2]; incubation 120 min) was 39.31 ± 1.09 ng/mL. For the same compound, the “Concentration of TPH in plasma” value ([2]; incubation 240 min) was 53.92 ± 1.68 ng/mL, the “inhibition of angiogenesis induced by super-maximal concentrations of H2O2” value ([3]; CAM model, Tables 1A and 1B) was “effectively inhibited” and the “% Inhibition ± SD” value [3, 7] was 28.0 ± 13.6 %. For the same compound, the “Branch pts ± SEM” value [3, 7] was 155 ± 14.4, the “% Inhibition ± SD” value [3, 8] was 32.9 ± 8.4 % and the “Branch pts ± SEM” value [3, 8] was 151.3 ± 15.3. The “% Inhibition ± SD” value [3, 9] was 44.7 ± 6.6 %, the “Branch pts ± SEM” value [3, 9] was 137.2 ± 6.9 and the “% Inhibition ± SD” value [3, 10] was 55.7 ± 7.2 %. For the same compound, the “Branch pts ± SEM” value [3, 10] was 127.3 ± 6.4.
